The test has as its target T1, human CRTH2 receptor (Homo sapiens, UniProt Q9Y5Y4, V204A).
T1 construct: expressed in transfected cells; host or cells: COS-7 (transient transfection)
T1 sequence (Q9Y5Y4 1-395 V204A): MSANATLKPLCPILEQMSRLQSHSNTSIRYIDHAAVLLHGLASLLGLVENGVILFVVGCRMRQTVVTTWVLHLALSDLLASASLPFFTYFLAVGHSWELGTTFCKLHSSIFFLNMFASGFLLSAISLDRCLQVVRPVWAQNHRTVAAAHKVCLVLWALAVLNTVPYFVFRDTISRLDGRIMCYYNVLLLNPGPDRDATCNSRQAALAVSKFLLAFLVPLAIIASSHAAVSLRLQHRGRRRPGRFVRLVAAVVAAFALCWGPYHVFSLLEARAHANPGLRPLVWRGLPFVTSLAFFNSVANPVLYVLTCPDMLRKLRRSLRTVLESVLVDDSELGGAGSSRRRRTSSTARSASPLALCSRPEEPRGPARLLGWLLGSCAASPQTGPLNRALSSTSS
The experiment in a line: CRTH2 receptor binding assay ([3H]PGD2 competition on whole transfected cells). To be noted: competition binding with 0.1 nM [3H]PGD2, whole cells expressing CRTH2, 3 h at 4° C. The text has this: Generation/origin of the cDNA Constructs. The coding sequence of the human CRTH2 receptor (genbank accession no NM_004778) was amplified by PCR from a human hippocampus cDNA library and inserted into the pcDNA3.1(+) expression vector (invitrogen) via 5′ HindIII and 3′ EcoRI. The sequence identity of the construct was verified by restriction endonuclease digests and sequencing in both directions on an ABI Prism (Applied Biosystems, Foster City, Calif.).
Cell Culture and Transfection. COS-7 cells were grown in Dulbecco's modified Eagle's medium (DMEM) 1885 supplemented with 10% fetal bovine serum, 100 units/ml penicillin, […] streptomycin, and kept at 37° C. in a 10% CO2 atmosphere. HEK293 cells were maintained in Minimum Essential medium (MEM) supplemented with 10% (v/v) heat inactivated fetal calf serum (HIFCS), 2 mM Glutamax™-I, 1% non essential amino acids (NEAA), 1% sodium pyruvate and 10 μg/ml gentamicin. For binding experiments, COS7 cells were transiently transfected with the CRTH2 receptor using a calcium phosphate-DNA coprecipitation method with the addition of chloroquine (as described by Holst B, Hastrup H, Raffetseder U, Martini L, Schwartz T W. J Biol. Chem. 2001 Jun. 8; 276(23):19793-9.)
Binding assay. 24 h after transfection COS-7 cells were seeded into 96 well plates at a density of 30.000 cells/well. Competition binding experiments on whole cells were then performed about 18-24 h later using 0.1 nM [^3H]PGD2 (NEN, 172 Ci/mmol) in a binding buffer consisting of HBSS (GIBCO) and 10 mM HEPES. Competing ligands were diluted in DMSO which was kept constant at 1% (v/v) of the final incubation volume. Total and nonspecific binding were determined in the absence and presence of 10 μM PGD2. Binding reactions were routinely conducted for 3 h at 4° C. and terminated by 2 washes (100 μl each) with ice cold binding buffer. Radioactivity was determined by liquid scintillation counting in a TOPCOUNTER (Packard) following over night incubation in Microscint 20. Stable HEK293 cells were seeded at a density of 30.000 cells/well 18-24 h prior to the binding assay which was performed essentially as described for COS7 cells above. Determinations were made in duplicates.
Curve analysis was performed with the GraphPadPrism software 3.0 (Graphpad Prism Inc., San Diego, USA) and IC50 values were calculated as a measure of the antagonistic potencies.
As to `Cc1ccc(S(=O)(=O)N2CCOCC2)cc1C(=O)Nc1ccccc1C(=O)O` [B78], the half-inhibitory concentration (IC50) (in general, the concentration at which inhibition is half-maximal) is > 5000 nM. As to `Cc1cccc(NS(=O)(=O)c2ccc(Cl)c(C(=O)Nc3ccccc3C(=O)O)c2)c1` [B57], the IC50 was 500 to 5000 nM. Consider `Cc1c(S(=O)(=O)Nc2ccc(Br)cc2)csc1C(=O)Nc1ccccc1C(=O)O` [B25, 2-[4-(4-Bromophenylsulfamoyl)-3-methylthiophene-2-carbonylamino]-benzoic acid], for which the IC50 is < 500 nM. `O=C(Nc1ccccc1C(=O)O)c1cccc(NC(=O)C(c2ccccc2)c2ccccc2)c1` [B36]: the IC50 was < 500 nM.

As to `O=C(Nc1ccccc1C(=O)O)c1cccc(NC(=O)c2ccco2)c1` [B35], the IC50 is > 5000 nM. As to `O=C(Nc1ccc(Br)cc1C(=O)O)c1cccc(S(=O)(=O)Nc2ccc(Br)cc2)c1` [B15, 5-Bromo-2-[3-(4-bromophenylsulfamoyl)benzoylamino]benzoic acid], the IC50 is < 500 nM. Turning to `O=C(Nc1ccc(Br)cc1C(=O)O)c1cccc(S(=O)(=O)Nc2ccc(F)cc2)c1` [B29, 5-Bromo-2-[3-(4-fluorophenylsulfamoyl)benzoylamino]benzoic acid], the IC50 is < 500 nM. With `O=C(Nc1ccccc1C(=O)O)c1ccc(Br)c(S(=O)(=O)Nc2cccc(Oc3ccccc3)c2)c1` [B21, 2-[4-Bromo-3-(3-phenoxyphenylsulfamoyl)benzoylamino]benzoic acid] the figure was < 500 nM; with `O=C(COc1ccc(Cl)cc1Cl)Nc1cccc(C(=O)Nc2ccccc2C(=O)O)c1` [B3, 2-{3-[2-(2,4-Dichlorophenoxy)acetylamino]benzoylamino}-benzoic acid], < 500 nM. `O=C(CSCc1ccccc1)Nc1cccc(C(=O)Nc2ccccc2C(=O)O)c1` [B42]: the IC50 is < 500 nM. In turn, `O=C(Nc1ccc(OC(F)(F)F)cc1)Nc1cccc(C(=O)Nc2ccccc2C(=O)O)c1` [B8, 2-{3-[3-(4-Trifluoromethoxyphenyl)ureido]benzoylamino}benzoic acid] showed an IC50 of 500 to 5000 nM. Turning to `COc1ccc(C(=O)Nc2cccc(C(=O)Nc3ccccc3C(=O)O)c2)cc1` [B11, 2-[3-(4-Methoxybenzoylamino)benzoylamino]benzoic acid], the IC50 lay in the range of 500 to 5000 nM.

With `O=C(Nc1ccc(Br)cc1C(=O)O)c1cccc(S(=O)(=O)Nc2ccc(OC(F)(F)F)cc2)c1` [B14, 5-Bromo-2-[3-(4-trifluoromethoxyphenylsulfamoyl)benzoylamino]benzoic acid], the IC50 was in the range of 500 to 5000 nM.

Turning to `O=C(Nc1ccccc1C(=O)O)c1cccc(S(=O)(=O)N2CCCC2)c1` [B74], the 50% inhibitory concentration (IC50) is > 5000 nM. Then `O=C(Nc1ccc(Cl)cc1C(=O)O)c1cccc(S(=O)(=O)Nc2ccc(Cl)cc2)c1` [B30, 5-Chloro-2-[3-(4-chlorophenylsulfamoyl)benzoylamino]benzoic acid], with < 500 nM. In turn, `O=C(Nc1ccc(Br)cc1C(=O)O)c1cccc(S(=O)(=O)Nc2ccc(Cl)nc2)c1` [B13, 5-Bromo-2-[3-(6-chloropyridin-3-ylsulfamoyl)benzoylamino]benzoic acid] had an IC50 of 500 to 5000 nM. `CCN(CC)S(=O)(=O)c1cc(C(=O)Nc2ccccc2C(=O)O)ccc1OC` [B76] yielded an IC50 of 500 to 5000 nM. Take `CC(=O)c1ccc(NS(=O)(=O)c2cc(C(=O)Nc3ccccc3C(=O)O)ccc2C)cc1` [B65]: the IC50 is > 5000 nM. `Cc1c(S(=O)(=O)Nc2ccc(I)cc2)csc1C(=O)Nc1ccccc1C(=O)O` [B24, 2-[4-(4-Iodophenylsulfamoyl)-3-methylthiophene-2-carbonylamino]benzoic acid]: the IC50 is < 500 nM.

Regarding `O=C(Nc1ccc(Br)cc1C(=O)O)c1cccc(S(=O)(=O)Nc2ccc(Cl)cc2)c1` [B28, 5-Bromo-2-[3-(4-chlorophenylsulfamoyl)benzoylamino]benzoic acid], the IC50 was < 500 nM. Then `COc1ccc(C(=O)Nc2cccc(C(=O)Nc3ccccc3C(=O)O)c2)cc1OC` [B9, 2-[3-(3,4-Dimethoxybenzoylamino)benzoylamino]benzoic acid], with 500 to 5000 nM; and `O=C(COCc1ccccc1)Nc1cccc(C(=O)Nc2ccccc2C(=O)O)c1` [B10, 2-[3-(2-Benzyloxyacetylamino)benzoylamino]benzoic acid], with 500 to 5000 nM; and `COc1ccc(NS(=O)(=O)c2cc(C(=O)Nc3ccccc3C(=O)O)ccc2C)cc1` [B51], with 500 to 5000 nM. With `Cc1ccc(C(=O)Nc2ccccc2C(=O)O)cc1S(=O)(=O)Nc1ccc(I)cc1` [B59] the figure was < 500 nM. Consider `Cc1ccc(S(=O)(=O)Nc2cccc(C(=O)Nc3ccccc3C(=O)O)c2)cc1` [B5, 2-[3-(Toluene-4-sulfonylamino)benzoylamino]benzoic acid], for which the concentration for half-maximal inhibition (IC50) fell in the range of 500 to 5000 nM. In turn, `CCN(CC)S(=O)(=O)c1cc(C(=O)Nc2ccccc2C(=O)O)ccc1Br` [B69] registered an IC50 of 500 to 5000 nM. Consider `COc1cccc(OC)c1C(=O)Nc1cccc(C(=O)Nc2ccccc2C(=O)O)c1` [B38], for which the IC50 is 500 to 5000 nM. As to `CCOc1ccc(NS(=O)(=O)c2cc(C(=O)Nc3ccccc3C(=O)O)ccc2C)cc1` [B64], the IC50 was in the range of 500 to 5000 nM. With `COc1ccccc1NS(=O)(=O)c1cccc(C(=O)Nc2ccccc2C(=O)O)c1` [B60] the figure was 500 to 5000 nM. As to `Cc1c(S(=O)(=O)Nc2ccc(OC(F)(F)F)cc2)csc1C(=O)Nc1ccccc1C(=O)O` [B20, 2-[3-Methyl-4-(4-trifluoromethoxyphenylsulfamoyl)thiophene-2-carbonylamino]benzoic acid], the half-inhibitory concentration (IC50) is < 500 nM. Consider `Cc1ccc(NS(=O)(=O)c2cccc(C(=O)Nc3ccccc3C(=O)O)c2)cc1` [B46], for which the IC50 fell in the range of 500 to 5000 nM. With `CCCOc1ccc(C(=O)Nc2cccc(C(=O)Nc3ccccc3C(=O)O)c2)cc1` [B40], the IC50 is < 500 nM.

`O=C(Nc1ccccc1C(=O)O)c1cc(S(=O)(=O)N2CCCC2)c(Cl)cc1Cl` [B80] yielded a half-inhibitory concentration (IC50) of 500 to 5000 nM. For the molecule `O=C(Nc1ccccc1C(=O)O)c1cccc(S(=O)(=O)N2CCCCC2)c1` [B81], the half-maximal inhibitory concentration (IC50) fell in the range of 500 to 5000 nM.

`O=C(Nc1ccccc1C(=O)O)c1cc(S(=O)(=O)N2CCCCC2)c(Cl)cc1Cl` [B70]: the IC50 is < 500 nM. Then `O=C(CCc1ccccc1)Nc1cccc(C(=O)Nc2ccccc2C(=O)O)c1` [B4, 2-[3-(3-Phenylpropionylamino)benzoylamino]benzoic acid], with 500 to 5000 nM; and `O=C(Nc1ccccc1C(=O)O)c1cccc(NS(=O)(=O)c2ccc(F)cc2)c1` [B7, 2-[3-(4-Fluoro-benzenesulfonylamino)benzoylamino]benzoic acid], with 500 to 5000 nM. In turn, `O=C(Nc1ccccc1C(=O)O)c1ccc(Br)c(S(=O)(=O)Nc2ccc(Cl)nc2)c1` [B18, 2-[4-Bromo-3-(6-chloropyridin-3-ylsulfamoyl)benzoylamino]benzoic acid] displayed a half-inhibitory concentration (IC50) of 500 to 5000 nM. In the case of `Cc1ccccc1NS(=O)(=O)c1cccc(C(=O)Nc2ccccc2C(=O)O)c1` [B53], the IC50 is 500 to 5000 nM. Take `Cc1ccc(C(=O)Nc2ccccc2C(=O)O)cc1S(=O)(=O)Nc1ccc(Br)cc1` [B52]: the IC50 was < 500 nM. On to `C/C(=C\c1ccccc1)C(=O)Nc1cccc(C(=O)Nc2ccccc2C(=O)O)c1` [B6, 2-[3-((E)-2-Methyl-3-phenylacryloylamino)benzoylamino]benzoic acid], for which the IC50 was in the range of 500 to 5000 nM. With `Cc1ccc(C(=O)Nc2ccccc2C(=O)O)cc1S(=O)(=O)N1CCCCCC1` [B75] the figure was 500 to 5000 nM; with `O=C(Nc1ccccc1C(=O)O)c1cccc(NC(=O)c2cccs2)c1` [B33], 500 to 5000 nM. Then `O=C(Nc1ccc(Br)cc1C(=O)O)c1ccc(Br)c(S(=O)(=O)Nc2ccc(Br)cc2)c1` [B26, 5-Bromo-2-[4-bromo-3-(4-bromophenylsulfamoyl)benzoylamino]benzoic acid], with < 500 nM.

For the molecule `O=C(Nc1ccccc1C(=O)O)c1ccc(Br)c(S(=O)(=O)NCc2ccccc2)c1` [B50], the IC50 is 500 to 5000 nM. For the molecule `O=C(Nc1ccccc1C(=O)O)c1cccc(S(=O)(=O)N2CCOCC2)c1` [B68], the IC50 was > 5000 nM.

These data come from US20090105218A1, “CRTH2 Receptor Ligands For Therapeutic Use” (7TM PHARMA A/S, priority 2004, published 2009).
